Like-named read-outs stand apart in the source and are kept apart here.
How the values were obtained:
Physical property data = type: physicochemical
ASTM D1177 freeze point = type: physicochemical
Source text: FIG. 1 illustrates the aqueous solution freeze point characteristics of the 1,3-propanediol and GM 6043 (EG). […] This could be an indication that actual protection against hard, damaging freezing is actually better, approaching the effective protection point of the EG-based product. […] We feel that the antifreeze properties of the chemistry are acceptable. Indeed a 50% solution would provide adequate protection against freezing in most geographies. TC in FIG. 1 is an internal designation for the PDO aqueous solutions at 50, 55, and 60 volume percent PDO.

SMILES | Specific Gravity (Physical property data; 20° C.) | Specific Gravity (Physical property data) | Freeze protection (ASTM D1177 freeze point; 55% in water) | Appearance at the reported freeze point (ASTM D1177 freeze point; aqueous solution)
CC(O)CO (centres unmarked) [PG, propylene glycol] | 1.032 |  |  | 
OCCO [EG, ethylene glycol] |  | 1.115 |  | 
OCCCO [PDO, 1,3-propanediol] | 1.0526 |  | equivalent to 50% EG | soft and slushy

Reference: patent US7452479B2, “Chemical base for fuel cell engine heat exchange coolant/antifreeze comprising 1,3-propanediol” (Shell Oil Company, priority 2001, dated 2008)
